Laboratory results published in patent US20040148991A1, “Method and apparatus for dissolving urea” (priority 2003, published 2004).

Assay: Urea dissolution time in water at 50/50 wt/wt urea/water concentration
Type: physicochemical
Conditions: for dissolution time faster than control test: versus control 12 minutes
Procedure: The next step of the method of the present invention comprises mixing the urea prills and the water so as to form a mixture. After the mixture is formed, the mixture of urea and water is then allowed to stand for an amount of time sufficient to allow the temperature of the mixture to reach a predetermined temperature. In a preferred embodiment, the predetermined temperature is between about 19° C. and 24° C., and more preferably, about 23° C. The amount of time required for the temperature of the mixture to reach the predetermined temperature depends upon the amount of mixture in mixing container 12. During this time period in which the mixture is allowed to stand, the temperature of the mixture is monitored with temperature sensor 20. When the temperature of the mixture reaches the predetermined temperature, mixing of the urea/water mixture is resumed and continues until the urea completely dissolves in the water. The time for urea dissolution is measured from the moment the mixing resumes to the point in time when the urea becomes completely dissolved in the water. The solution is outputted from mixing container 12 via outlet 14.
A series of tests were conducted in order to determine the urea dissolution time when various amounts of water were initially added to the urea and wherein additional amounts of water were subsequently added to attain the 50/50 wt/wt urea/water concentration. A control test was first conducted in order to obtain reference data. About 40 grams of urea prills were mixed with an equal amount of water, i.e. 40 grams (or milliliters). The mixture was not allowed to stand for any amount of time. Thus, the mixing step began as soon as 40 grams of urea and 40 grams of water were added to mixing container 12. The time for the urea to completely dissolve was about twelve (12) minutes and is indicated by numeral 100 in the curve of FIG. 2.
In the first test, about 40 grams of urea and 10 grams of water were deposited into mixing container 12. The mixture was then mixed or stirred, and allowed to stand until the temperature of the mixture reached about room temperature or about 23° C. Next, an amount of water necessary to achieve a urea/water concentration of 50/50 wt/wt was added to the mixture. Since the initial amount of water was 10 grams , 30 grams of water were added to the mixture to achieve the desired 50/50 wt/wt concentration. The urea and water were mixed again. The urea completely dissolved in eight (8) minutes after the 50/50 wt/wt urea/water concentration was achieved. This is indicated by numeral 102 on the curve in FIG. 2. The dissolution time was about 33% faster than the control test dissolution time of twelve (12) minutes.
In the next test, about 40 grams of urea and 15 grams of water were deposited into mixing container 12. The mixture was then mixed or stirred, and allowed to stand until the temperature of the mixture reached about room temperature or about 23° C. Next, an amount of water necessary to achieve a 50/50 wt/wt urea/water concentration was added to the mixture. Since the initial amount of water was 15 grams, 25 grams of water were added to the mixture to achieve the desired 50/50 wt/wt urea/water concentration. The urea and water were mixed again. The urea completely dissolved in seven (7) minutes after the 50/50 wt/wt urea/water concentration was achieved. This is indicated by numeral 104 on the curve in FIG. 2. The dissolution time was about 42% faster than the control test dissolution time of twelve (12) minutes.
In the next test, about 40 grams of urea and 20 grams of water were deposited into mixing container 12. The mixture was then mixed or stirred, and allowed to stand until the temperature of the mixture reached about room temperature or about 23° C. Next, an amount of water necessary to achieve a urea/water concentration of 50/50 wt/wt was added to the mixture. […]

For `NC(N)=O` [urea], the “dissolution time faster than control test” value (Test 1: 10 g water initially) was “about 33%”, the “time for the urea to completely dissolve” value (Test 1: 40 g urea + 10 g water initially, stand until about 23° C., then 30 g water added to 50/50 wt/wt) was 8 min and the “dissolution time faster than control test” value (Test 2: 15 g water initially) was “about 42%”. For the same compound, the “time for the urea to completely dissolve” value (Test 2: 40 g urea + 15 g water initially, stand until about 23° C., then 25 g water added to 50/50 wt/wt) was 7 min, the “dissolution time faster than control test” value (Test 3: 20 g water initially) was “about 58%” and the “time for the urea to completely dissolve” value (Test 3: 40 g urea + 20 g water initially, stand until about 23° C., then 20 g water added to 50/50 wt/wt) was 5 min. For the same compound, the “dissolution time faster than control test” value (Test 4: 25 g water initially) was “about 67%”, the “time for the urea to completely dissolve” value (Test 4: 40 g urea + 25 g water initially, stand until about 23° C., then 15 g water added to 50/50 wt/wt) was 4 min and the “time for the urea to completely dissolve” value (Test 5: 40 g urea + 40 g water, mixed, stand until about 23° C., mixed again) was 3 min. For the same compound, the “dissolution time faster than control test” value (Test 5: 40 g water initially) was “about 75%” and the “time for the urea to completely dissolve” value (control test: 40 g urea prills + 40 g water, mixture not allowed to stand) was roughly 12 min.
